{"source": "patent US11213815B2", "about": "“Netwell assay plate system” (VIB VZW, priority 2016, dated 2022)", "system": "Arabidopsis plants", "assay": "Arabidopsis netwell growth assay (rosette area over time, plants grown in soil in the multiwell plate system)", "type": "in vivo", "method": "In the Arabidopsis […] growth assay, plants were grown in soil inside a 24 well […] insert plate comprising a polystyrene porous membrane with a pore size of about 420 μm, which is positioned into a 24 well irrigation plate (FIG. 1, 2). Before sowing, seeds were vernalized in water at 4 degrees Celsius for two days. Afterwards, the […] insert plate was filled with fine potting soil, or optionally with soil mixed with sand (ratio 3:1). During this process the soil (or soil with sand) was compressed two times (or optionally three times for soil/sand) by applying a light pressure onto the individual […]. A “humidity control” soil sample was taken for determination of the initial soil water humidity (see later). Next, one mL of water was added to each of the wells of the irrigation plates. The […] insert plates were positioned inside the irrigation plates and the mounted plates were sealed with (plastic) tape surrounding the edges, to prevent excessive water evaporation from the boundary wells as compared to the center wells of the 24 well plate. This was a crucial step to avoid growth differences between plants in boundary and center wells, and to obtain reproducible results. Next, the weight of the combined insert and irrigation plates was recorded. When seeds were used as samples, during the sowing of the Arabidopsis seeds, one seed was distributed in each of the wells. For germination, the […] insert plates were covered with a standard multiwell cover plate which was sealed with parafilm and was placed inside a plant growth chamber. After three days, the covers were removed and the plants continued to grow at normal atmospheric conditions. At 7 days after sowing, or when the appropriate plant stage was reached (e.g. 7 and 10 or 5 and 7 days), the plants received a (chemical) treatment. Therefore, 0.5 (optionally 0.8 mL for soil with sand) of a (chemical-containing) solution was added to each of the wells via the corresponding access holes. Each plant sample receives the supplied (same) amount of (chemical) solution. In the days following the treatment, the plants were again irrigated with water to maintain a soil water humidity of 3.5 (or optionally 0.95 for soil with sand) (see below). In the 24 well format the growth of Arabidopsis plants was typically followed for about 15 days, during which image analysis procedures were used to follow the growth of the individual plant samples over time and to quantify the growth response of these plants in response to the specific (chemical) treatments. The initial soil water humidity was determined by first drying the “humidity control” soil sample in an oven at 60 degrees Celsius, to obtain the “dry weight”. Next, taking into account the weight of the empty irrigation plates, the empty […] insert plates, and the current weight of the combined insert and irrigation plates, water was added to each of the wells to reach a “soil water humidity” of “3.5 gram water per gram of dry soil” or “3.5” (optionally, when soil with sand was used: “0.95 gram water per gram of dry soil (with sand)” was used as initial soil water humidity value). Water was added into the irrigation plate wells through the access holes present in the corresponding […] insert plate wells using a repetition pipet. Due to equal evaporation of water from individual wells within one insert plate, each well of the irrigation plate received the same amount of water, rounded to 100 μL. The water, added to the wells in the irrigation plates, is taken up by the soil present in the hollow chambers of the […] insert plate wells, through the mesh by capillary forces (FIG. 3B). This irrigation was repeated on a daily basis to prevent excessive drying of the soil in the wells. This watering regime is suitable for frequently used Arabidopsis growth conditions, but can be altered and further optimized when a plant drought-stress response is the desired testing regime. Plants were grown as described in the above […] assay method. […]"}
{"molecule": "CC(C)(C)[C@@H](O)[C@@H](Cc1ccc(Cl)cc1)n1cncn1", "note": "(racemic) [Paclobutrazol]", "values": [{"measurement": "effect on plant growth (rosette area), dose response", "setting": "Example 6, 0.8 mL at 7 and 10 DAS, Paclobutrazol 10, 20, 100 μM vs 0.1% DMSO, FIG. 8B", "result": "plant growth retarding effect"}]}
{"molecule": "c1ccc(CNc2ncnc3nc[nH]c23)cc1", "note": "[BAP, 6-Benzylaminopurine]", "values": [{"measurement": "effect on plant growth (average projected rosette area over time)", "setting": "Example 2, 0.5 mL treatment solution at 8 DAS, 10 μM Kresoxim-methyl or 10 μM 6-Benzylaminopurine, imaging 4-16 DAS, vs water control, FIG. 4", "result": "shoot growth inhibition"}]}
{"molecule": "O=C(O)Cc1cccc2ccccc12", "note": "[NAA, 1-Naphthaleneacetic acid]", "values": [{"measurement": "rosette size versus NAA concentration", "setting": "Example 5, 0.8 mL at 7 and 10 DAS, 1, 10, 20, 100 μM NAA vs DMSO vehicle, imaging 4-14 DAS, FIG. 7B", "result": "The higher the concentration of NAA during the treatment, the smaller the rosette size"}, {"measurement": "maximal inhibitory concentration", "setting": "Example 5, rosette growth, concentration at which maximal inhibition was probably already reached", "result": "≤ 50", "unit": "µM"}]}
{"molecule": "O=C(O)/C=C\\c1ccccc1", "note": "[cis-CA, cis-cinnamic acid]", "values": [{"measurement": "effect on plant growth (rosette area) at higher concentration, dose response", "setting": "Example 6, 0.8 mL at 7 and 10 DAS, cis-CA 20, 50, 100 μM vs 0.1% DMSO, FIG. 8A", "result": "plant growth retarding effect"}, {"measurement": "effect on plant growth (rosette area) at low concentration", "setting": "Example 6, 0.8 mL at 7 and 10 DAS, cis-CA at 1 (unit not given) vs 0.1% DMSO, FIG. 8A", "result": "slightly positive effect"}, {"measurement": "toxicity for the plant at higher concentration", "setting": "Example 6, cis-CA at higher concentration (20, 50, 100 μM), FIG. 8A", "result": "rather toxic for the plant"}]}
